Consider one substance from US11726079B2, “Lighting systems and methods of using lighting systems for in vitro potency assay for Photofrin” (Concordia Laboratories, Inc., priority 2012, dated 2023).

Several values for one entry are separate records, joined by “and”; a condition that tells them apart may be missing. Identical values can stand only once.

The subject of one data set is A549 cells. As to the kind of experiment: Homogeneity of irradiation: every well of an A549 plate treated equally with Photofrin®. The data set is classed as cell-based, human. As to conditions: Photofrin® at 1.5 μg/mL; wells in the middle of the plate; relative to a second plate of cells without drug; before lengthening the light path from 54 cm to 95.5 cm. From the text: The Xenon arc lamp produces a bright, broad wavelength irradiance beam that when collimated still retains a bright center. This lack of homogeneity in the intensity of the light beam has to be minimized in order to achieve even irradiation over the area of the 96-well plate. For this purpose, two plano-convex lenses are introduced into the light path to approximate a Kohler illumination (FIG. 1). After an initial dosing ranging study of Photofrin® (data not shown), each well of an assay plate containing A549 cells is treated equally with Photofrin® at 1.5 μg/mL to assess homogeneity of the irradiation. For this experiment, the percent viability is calculated relative to a second plate of cells without drug. […] To address the inhomogeneity in irradiance, the distance from the final bandpass filter to the sample is raised approximately 2-fold from 54 cm to 95.5 cm while the first surface of the plano-convex lenses is maintained at 13.6 cm from the 650 nm cut-off filter. By increasing the length of the light path, the center zone of irradiance is broadened to cover the area of the entire plate (FIG. 13). As the light path is lengthened, the overall irradiance is decreased, necessitating the use of a higher Photofrin® concentration.

Data set [1] deals with A549 human lung carcinoma cells. As to the kind of experiment: Photofrin® dose response of irradiated A549 cells with MTT as the endpoint. In kind it is cell-based. The method, then:
XTT and MTT are two types of formazan dyes that are used to measure mitochondrial function as a surrogate for cell viability. A Photofrin® dose response curve is performed with either XTT or MTT as the endpoint. The results obtained with these two endpoints differ by approximately 15%, but each produces consistent values (see Table 2, below). As the potency of an unknown will be determined with respect to a Reference Lot, the absolute EC50 value is not critical. Given that the use of the MTT dye requires an additional solubilization step, XTT is selected for use in this assay.

Regarding porfimer sodium [Photofrin®], the viability (in general, a read-out of living cells in per cent, often relative to untreated cells) in the data set on A549 cells worked out at 103%. The EC50-MTT in data set [1] (experiment PIN-009, in µg/mL) was 8.28 and 8.11. Besides, the EC50-MTT, Mean in data set [1] (experiment PIN-009, mean) worked out at 8.2 µg/mL.
